Counter-ions that a name gives are not always drawn.
Compound: Cc1nc(N2CCC(CO)CC2)c2sc(C)c(-c3c(C)cc(Br)cc3C)c2n1 (as salt: HCl) [compound 1-004, {1-[7-(4-bromo-2,6-dimethyl-phenyl)-2,6-dimethyl-thieno[3,2-d]pyrimidin-4-yl]-piperidin-4-yl}-methanol hydrochloride]
- melting point: 242 to 244 °C

— patent publication US7557111B2, “Substituted thieno[3,2-d]pyrimidines as CRF receptor antagonists” (Taisho Pharmaceutical Co., Ltd., priority 2004, dated 2009)
